Measured values published in ChEMBL document CHEMBL3507680, “University of Dundee, Gates Library screen for HepG2 cell viability”.

Experiment: Human HepG2 cell viability assay in 384 well format
Type: toxicity, cell-based
Parameters: dose 125 nL, time 70.5 hour; cytotoxicity at 70.5 h: concentration not given beside the values
Conditions: HepG2 cells, read-out: Inhibition

| SMILES | cytotoxicity at 70.5 h [%] |
| --- | --- |
| CCS(=O)(=O)N1CCC2(CN(C(=O)c3cn(C)cn3)C2)C1 | 8.36 |
| Cc1cc(NC(N)=O)ccc1OCC(F)(F)F | -2.1 |
| CNc1ncc(CN(C)c2nc(C3CCCC3)nc3c2cnn3C)cn1 | 6.56 |
| CN1CC(=O)N(c2cccc(F)c2)CC12CCN(Cc1cccnc1)C2 (stereo not given) | 3.06 |
| CN1CCC(CNC(=O)NCc2ccc(F)cc2)CC1 | -1.23 |
| CC(c1ccco1)N(C)C(=O)NCCOc1ccc(C#N)cc1 (stereo not given) | -8.15 |
| O=C(NCC1CCC2(CC1)OCCO2)c1ccncc1F | -3.09 |
| CN(CCC#N)C(=O)CSc1cc(F)ccc1F | 5.2 |
| Cc1ccc2[nH]c(=O)c(CN(C)Cc3cc(C4CC4)[nH]n3)cc2c1 | 11.1 |
| O=C(NCc1ccc2c(c1)OCO2)Nc1cccnc1N1CCCC1 | -2.2 |
| CCc1nccn1C1CCCN(C(=O)c2cnn(C)c2C2CC2)C1 (stereo not given) | -0.779 |
| FC(F)(F)Sc1ccc(NCc2nnc(C3CC3)o2)cc1 | 1.88 |
| COc1cc(CCC(=O)NC(C)(C)C)ccc1OCC(F)(F)F | -9.72 |
| Cc1cc(C)n(C2CCCN(C(=O)c3ccc(F)c(F)c3)C2)n1 (stereo not given) | 9.19 |
| Cc1nnc(CN(Cc2ccccc2Cl)C2CCCC2)o1 | -5.33 |
| COC(=O)c1cnc(C(=O)N(c2ccc(OC)c(F)c2)C(C)C)cn1 | 0.246 |
| CC(C)CNC(=O)[C@H]1C[C@@H]2CN(Cc3cccnc3)C[C@H]1O2 | -2.17 |
| O=C(NCCCN1CCOCC1)C(OC1CCCC1)c1ccccc1 (stereo not given) | -1.75 |
| Cc1nnc2n1CCN(CCOc1ccccc1C#N)C2 | 11.3 |
| CCn1cc2c(n1)C(COC)CN(C(=O)COc1ccccc1)C2 (stereo not given) | 6.15 |
| O=C(NCc1cc(O)ncn1)C1CCOc2ccccc2C1 (stereo not given) | -7.76 |
| COc1ncccc1NC(=O)N(C1CC1)C(C)C(C)C (stereo not given) | -13.6 |
| CC(=O)N(Cc1noc(C)n1)C1CCN(Cc2ccc(C#N)cc2)C1 (stereo not given) | 30.3 |

| SMILES | cytotoxicity at 70.5 h [%] |
| --- | --- |
| Cc1cccc(-c2noc(CN3CCCC(Cn4cncn4)C3)n2)c1 (stereo not given) | 35.6 |
| CCc1nnc2n1CCN(CCC(=O)Nc1sccc1C#N)C2 | -3.22 |
| CN(C)c1nc(CNC(=O)Nc2cccc([S+](C)[O-])c2)cs1 (stereo not given) | -5.56 |
| CCOCCCNC(=O)C(NC(=O)Cc1cccs1)c1ccccc1 (stereo not given) | 4.71 |
| CCc1nc(C(=O)N2CCN(C)c3ccccc32)c[nH]1 | -9.6 |
| Cc1cccc(CNC(=O)NCC2CCN(Cc3ncc[nH]3)C2)c1 (stereo not given) | -16.7 |
| O=C(c1ccc2ccccc2c1)C1CCCN(C(=O)Cn2cnnn2)C1 (stereo not given) | -3.65 |
| c1cnnc(N2CCCC2CNc2ncnc3sccc23)c1 (stereo not given) | -7.82 |
| CN(CC(=O)N1CCCC1c1noc(C2CC2)n1)S(C)(=O)=O (stereo not given) | -12.3 |
| O=S(=O)(Nc1ccc2c(c1)OCCO2)N1CCCCC1 | -0.954 |
| O=C(NCCCC(=O)N1Cc2ccccc2C1)NCc1nccs1 | -5.34 |
| CCc1nc(CCNc2ncccc2C#N)sc1C | -8.12 |
| O=C(O)[C@H]1CCCN1CCOc1cccc(Cl)c1 | -5.33 |
| Cc1cc(NS(=O)(=O)c2ccc(Cl)s2)ccc1-n1cccc1C(=O)O | -4.85 |
| Cc1cccc(N2CC3(COCCN(c4ccncn4)C3)OCC2=O)c1 (stereo not given) | 0.341 |
| COCCN1CCCC12CCCN(c1nncs1)C2 (stereo not given) | -8.64 |
| CNS(=O)(=O)c1cccc(C(C)NCc2ccccc2)c1 (stereo not given) | -2.31 |
| CC(=O)Nc1ccc2nc(-c3nccn3C[C@@H]3CCCO3)ccc2c1 | -11.8 |
| O=C(COC1CCCCC1)Nc1ccn(Cc2cccnc2)n1 | -7.64 |
| COCCNC(=O)Cn1cc(OCc2ccccc2F)c(=O)cc1CO | 45.6 |
| CC(=O)c1ccccc1C(=O)NCC1(CO)CC1 | 4.58 |
| CC(C)c1sc(Cl)nc1C(=O)N1CCN(Cc2ccccc2)CC1 | 27.3 |
| O=C(NCc1ccccc1)N1CCC2(CC(=O)N(c3ccccc3)C2)C1 (stereo not given) | -5.57 |

| SMILES | cytotoxicity at 70.5 h [%] |
| --- | --- |
| Cc1noc(-c2ccnc(N3CCC(N4CCCC4)CC3)c2)n1 | -8.66 |
| CN(C)CCN1CC[C@@H]2[C@@H]1CCN2C(=O)c1cccc(Cl)c1 | -13.9 |
| CCc1c(C)nc2cc(C3CCN(Cc4ccc(F)cc4)C3)nn2c1O (stereo not given) | -5.42 |
| O=C(N1CCCC1)N1C[C@@H]2CN(Cc3ccoc3)CCO[C@@H]2C1 | -11.3 |
| CCN(C(=O)c1ccc2c(c1)OCO2)C1CC(=O)NC1=O (stereo not given) | -6.4 |
| CCN1CCN(c2ccc(C(=O)NCCOC)cc2F)CC1 | 25.2 |
| Cc1ccc(CCNc2nccc(-c3cc(C(=O)O)ccn3)n2)o1 | -6.22 |
| CN(Cc1nc(-c2cccnc2)no1)C(=O)c1cnc2n1CCCC2 | -6.12 |
| Cc1nn(C)c(N(C)C)c1CNC1CCOc2c(Cl)cccc21 (stereo not given) | 23.4 |
| O=C(NC1CC1)C1CN(c2nc3ccccc3s2)CCN1 (stereo not given) | -7.94 |
| Cc1ccc(N2CC[C@H]3OCC[C@@]3(C(=O)N3CCCO3)C2)nn1 | -4.42 |
| Cc1ncoc1C(=O)N1CC[C@@]2(C[C@H](NS(C)(=O)=O)CCO2)C1 | -7.59 |
| CC(C)CCN1C[C@H]2C[C@H](C(=O)NCC(C)C)[C@@H](C1)O2 | -2.84 |
| CCNC(=O)N1CCN(c2nc3ccccc3n2C)CC1 | -3.78 |
| Cc1ccc2c(n1)N(Cc1csc(C)n1)CCN(C1CCOC1)C2 (stereo not given) | -5.88 |
| COCCS(=O)(=O)Cc1nnnn1-c1ccccc1 | -2.53 |
| COCCN1C(=O)CC[C@]12CC[C@@H](NC(=O)c1cnccn1)CC2 | -2.82 |
| COc1cc(C2Nc3cc(Cl)ccc3C3=NCCN32)cc(OC)c1OC (stereo not given) | 13.6 |
| CCc1nc(C(=O)N(CC)CC(=O)N(C)C)nn1-c1ccccc1Cl | -2.5 |
| COc1cccc(C(=O)Nc2ccc(OC3CCN(C)CC3)cc2)c1 | -4.5 |
| O=C(NCCNc1ncccn1)N(Cc1ccc(F)cc1F)C1CC1 | -18.1 |
| O=C(N[C@@H]1CCNC[C@H]1O)c1ccc(-c2ccc(F)cc2)cc1 | -1.9 |
| N#Cc1ccnc(N2CCN(CC(O)c3cc(F)ccc3F)CC2)c1 (stereo not given) | -5.77 |

| SMILES | cytotoxicity at 70.5 h [%] |
| --- | --- |
| O=C(c1cccnc1N1CCOCC1)N1CCCC1Cn1cccn1 (stereo not given) | -8.41 |
| CN(Cc1nnc2n1CCC2)C(=O)Cc1ccc2c(c1)OCCO2 | -4.37 |
| CCc1ncc(C(=O)N(C)Cc2cc(-c3ccncc3)no2)cn1 | 35.7 |
| CC(=O)NCc1nnc2n1CCN(c1ncnc3c1CCC3)CC2 | 25.3 |
| CC(=O)Nc1nc(CNc2ccccc2CCC(F)(F)F)cs1 | -12 |
| COCC1CC2(CCN(Cc3cccnc3)CC2)CN1C(C)C (stereo not given) | -7.91 |
| CN(CCO)CC1COCCN1C(=O)C1(c2cccs2)CCCC1 (stereo not given) | -1 |
| CCOc1ncnc2c1CCN(c1cc(C(F)(F)F)ncn1)CC2 | 3.85 |
| Cc1cnc(C(=O)NC(COCC(C)C)c2ccco2)cn1 (stereo not given) | -0.693 |
| CCc1cn[nH]c1C1CCN(C(=O)c2cc(C(C)=O)c(C)[nH]c2=O)CC1 | -9.17 |
| c1ccc(CN2CCC3(CC2)CC(Nc2nccs2)CO3)nc1 (stereo not given) | -8.19 |
| Cc1nn(C)cc1-c1cc(C(F)(F)F)nn1CCC#N | -1.92 |
| O=C1CC2(CCN(C(=O)c3ccccc3)C2)Nc2ccccc2N1 (stereo not given) | -17.8 |
| CCOCCCNCc1cc2c(C)cc(C)cc2n2c(=O)n(C)nc12 | -0.158 |
| Cc1cnn(C2CCCN(C(=O)c3ccnc(N(C)C)c3)C2)c1 (stereo not given) | 28.8 |
| Cn1cc(C2CCCN2Cc2cscn2)cn1 (stereo not given) | -2.56 |
| Cc1noc(C)c1CN(C)C(=O)C1CCCN1S(N)(=O)=O (stereo not given) | 17.7 |
| CC(C)C1CN(C(=O)c2nccnc2N)CCS1 (stereo not given) | -4.8 |
| CC(C)[C@@H]1CN(Cc2ccccc2C#N)C[C@H]1C(=O)O | 21 |
| Cc1nnc2n1CCN(CC(O)CN1CCC(C)CC1)C2 (stereo not given) | -2.86 |
| COc1cccc(-c2cc(C(=O)NCCn3nc(C)nc3C)[nH]n2)c1 | -7.22 |
| Cc1ccccc1N1CC(c2nnc(N)s2)CC1=O (stereo not given) | 3.37 |
| CN1CCN(Cc2noc(-c3cc(-c4ccc(F)cc4)n[nH]3)n2)CC1 | 31.6 |

| SMILES | cytotoxicity at 70.5 h [%] |
| --- | --- |
| CSCC(C)(O)CNc1cccc(F)c1C(C)=O (stereo not given) | -5.74 |
| CNC(=O)NC(=O)C(C)Nc1ccccc1OCCOC (stereo not given) | -10.8 |
| CN(C)c1cc(C2CCN(C(=O)c3cnn(C)c3)CC2)ccn1 | -4.9 |
| Cc1ccc(CN(C)C(=O)c2cccc(NC(N)=O)c2)o1 | -11.5 |
| O=C(CSc1ccc2c(c1)OCCO2)NS(=O)(=O)c1cc(F)ccc1F | -7.36 |
| Cc1occc1C(=O)N1CCC2(CCN(Cc3cccs3)C2)CC1 | -1.13 |
| Cn1ccnc1C(=O)N1CCOC(Cc2ccc(Cl)cc2)C1 (stereo not given) | -8.65 |
| O=C(NCc1ccccc1CN1CCC(O)CC1)Nc1ccccn1 | -3.22 |
| O=C(c1cc[nH]n1)N1CCN(C(c2ccccc2)C(F)(F)F)CC1 (stereo not given) | -8.27 |
| Cc1ccc2cc(C3(O)CCN(C)CC3)ccc2n1 | -0.603 |
| CC(=O)N1CCCN(Cc2nnc(C(C)(C)C)o2)CC1 | 5.23 |
| Cc1nc(CNC(=O)NCC2(C)CCCc3ccccc32)no1 (stereo not given) | 29.3 |
| Cc1nnc2sc(-c3cc(C(C)C)n[nH]3)nn12 | -4.97 |
| CC(C)C(=O)NCCNc1nccc(-c2cc(C(=O)O)ccn2)n1 | -0.446 |
| CC(=O)Nc1ccsc1C(=O)N1CC[C@@H]2CC[C@H](C1)N2C | -6.78 |
| COCCN1C[C@@H]2CN(C(=O)CC3CC3)C[C@@H]2C1=O | -6.26 |
| Cn1cccc1C(=O)OCCNC(=O)c1ccccc1 | -10.7 |
| COCC1CN(Cc2cccc(C#N)c2)Cc2nccn2C1 (stereo not given) | 1.24 |
| Cc1cnn(CC2CN(CC(=O)NCc3ccccn3)CCO2)c1 (stereo not given) | 14.8 |
| CC(C)c1cnc(CN2C(=O)CC3(CCSC3)C2=O)o1 (stereo not given) | -3.08 |
| Cc1ccc(N2CCCC(NCCS(C)(=O)=O)C2)nn1 (stereo not given) | -1.77 |
| Cc1nn(C)c(=O)c2nn(-c3ccc(Cl)cc3)c(C)c12 | -1.68 |
| Cc1ccccc1CC1(CO)CCCN(c2ncnc3sccc23)C1 (stereo not given) | 31.4 |
